Reference: paper PMC2346451 (PLoS ONE, 2008)
Where two headings read alike, the source gives them in different places.

Molecular target: T1, mouse TRPV3 (mTRPV3) (Mus musculus, UniProt Q8K424)
T1 sequence (Q8K424 1-791): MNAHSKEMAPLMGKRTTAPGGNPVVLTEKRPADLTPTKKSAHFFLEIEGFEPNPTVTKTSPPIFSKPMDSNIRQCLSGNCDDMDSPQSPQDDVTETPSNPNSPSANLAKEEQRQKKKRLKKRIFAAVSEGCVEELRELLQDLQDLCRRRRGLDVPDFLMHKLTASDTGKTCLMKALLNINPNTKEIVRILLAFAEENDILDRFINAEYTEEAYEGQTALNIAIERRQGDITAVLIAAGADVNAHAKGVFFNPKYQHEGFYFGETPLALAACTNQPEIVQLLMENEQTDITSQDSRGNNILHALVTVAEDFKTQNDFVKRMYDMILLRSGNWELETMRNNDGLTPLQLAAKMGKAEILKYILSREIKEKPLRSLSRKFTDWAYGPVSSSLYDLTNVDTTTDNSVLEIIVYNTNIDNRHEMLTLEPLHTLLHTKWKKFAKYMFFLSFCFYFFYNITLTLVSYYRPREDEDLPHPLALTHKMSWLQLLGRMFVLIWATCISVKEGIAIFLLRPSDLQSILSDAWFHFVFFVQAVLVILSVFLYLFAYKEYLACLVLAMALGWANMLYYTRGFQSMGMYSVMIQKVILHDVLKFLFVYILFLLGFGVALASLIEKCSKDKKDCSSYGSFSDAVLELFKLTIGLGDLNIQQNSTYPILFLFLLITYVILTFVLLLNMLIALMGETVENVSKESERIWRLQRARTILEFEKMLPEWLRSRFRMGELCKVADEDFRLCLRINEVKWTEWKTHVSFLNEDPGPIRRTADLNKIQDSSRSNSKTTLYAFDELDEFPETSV
Test: Whole-cell patch clamp of mouse TRPV3 expressed in HEK-293T cells
Format: cell-based
Conditions: for Increase of agonist-evoked current prior to onset of inhibition: citral 1 mM, n = 7
Procedure: Transformed human embryonic kidney-293 (HEK-293T) cells were grown in Dulbecco's modified Eagle's medium (DMEM)+F-12 supplemented with 10% fetal calf serum, and 1% penicillin/streptomycin in 5% CO2 at 37°C. Cells grown to 90% confluence in 35 mm Petri dishes were transiently transfected with plasmid DNA encoding a TRP channel construct (1 µg). Rat TRPV1 (rTRPV1) was cloned into an enhanced green fluorescent protein-containing vector (pTracer-CMV2; Invitrogen, Carlsbad, CA). Chicken TRPV1 (cTRPV1), the chicken rat TRPV1 chimera (crcTRPV1), rat TRPV2 (rTRPV2), mouse TRPV3 (mTRPV3), mouse TRPV4 (mTRPV4), rat TRPM8 (rTRPM8), and rat TRPA1 (rTRPA1), were cloned into pcDNA3 and co-transfected with enhanced green fluorescent protein (0.1 µg) to follow expression. The cTRPV1 and crcTRPV1 clones were kindly provided by Dr. David Julius. Recordings were carried out 24–36 hours after transfection. Cells were split via trypsin EDTA, plated on glass coverslips at 5–10% confluence, and used 2–3 hours later.
Electrophysiological experiments were performed using the whole-cell patch-clamp technique at room temperature. Modified Ringer's solution with low chloride and nominal calcium contained (in mM): 130 sodium hydroxide, 5 potassium chloride, 1 magnesium chloride, 10 sodium 4-(2-hydroxyethyl)-1-piperazineethanesulfonic acid, 10 2-(N-morpholino)ethanesulfonic acid, and 20 glucose (pH 7.4; 310 milli-osmolar). […] 2 mM calcium chloride was included in the external solution where noted. To activate TRPV1, the modified Ringer's solution was made at pH 5 (low pH solution) and the chloride concentration was kept to a minimum to prevent contamination of the TRPV1 currents with acid-activated chloride currents. For recordings from heterologously expressing cells, the internal pipette solution contained (in mM): 125 cesium-Methanesulfonate, 10 cesium (1.2-bis(o-aminophenoxy)ethane-N,N,N',N'-tetraacetic acid, 8 sodium chloride, 4 magnesium adenosine triphosphate, and 10 HEPES (pH 7.2; 290 mOSM; nominal free calcium concentrations). For TRPA1 and dorsal root ganglion recordings, the internal pipette solution contained (in mM): 110 cesium-Methanesulfonate, 0.5 cesium4BAPTA, 8 sodium chloride, 0.2 calcium chloride, 4 magnesium-ATP, 4 sodium-GTP, and 10 4-(2-hydroxyethyl)-1-piperazineethanesulfonic acid (pH 7.2; 290 mOSM; 100 nM free calcium internal). MaxChelator was used to calculate the free calcium concentration (http://www.stanford.edu/cpatton/maxc.html).
Recordings were obtained using an Axopatch 200B amplifier, Digidata 1322A analog-to-digital converter, and pClamp 8.01 software (Molecular Devices, Union City, CA). Data were low-pass filtered at 2 kHz and digitized at 5 kHz. Borosilicate glass pipettes (World Precision Instruments, Sarasota, FL) were typically 3 MΩ pipette resistance after fire polishing. Cell capacitance was measured for each cell, and access resistance compensated to ∼80%. Recordings were begun ∼5 minutes after initial rupture to ensure initial steady state conditions. Current-voltage (I-V) relations were obtained using a ramp protocol. Voltage ramps (400 ms) from −100 to +40 or +100 mV were applied every 1–2 seconds and the holding potential was either −70 mV or 0 mV (see Figure Legends). A 40 ms step was added at the beginning and end of the ramp (i.e. at −100 mV, +40 mV or +100 mV). Liquid junction potentials were not corrected.
The dose response curves were fit with the Hill equation, where [drawing 8] and [A] is the concentration of agonist or blocker, N is the Hill coefficient, and KD is the [A] for Imeasured/Imax = 0.5. The term apparent dissociation constant is used in place of the half concentration of excitation and inhibition. […] Averaged data are presented as mean±standard error (S.E.) throughout. Statistical analysis included paired and unpaired Student's t-test comparisons of the data; p values are reported in the text.

In the case of `CC(C)=CCCC(C)=CC=O` [citral, 3,7-dimethyl-2,6-octadienal], the “Hill coefficient (activation)” value is reported as 22.3, the “Reversibility of citral inhibition of agonist-evoked current” value is reported as “essentially irreversible” and the “Increase of agonist-evoked current prior to onset of inhibition” value (+100 mV) is reported as 1.3±0.1 fold. For the same compound, the “Increase of agonist-evoked current prior to onset of inhibition” value (−100 mV) was 1.7±0.3 fold, the Kd (citral activation, nominal external calcium, read-out: Activation KD, app) was 926 µM and the “Hill coefficient (inhibition)” value (citral block of 2-aminoethyldiphenyl borate-evoked current) was 4.0. The Kd (citral block of current evoked by 700 µM 2-aminoethyldiphenyl borate, read-out: Inhibition KD, app) was 465 µM, the “Agonist efficacy I2-APB (100 µM)/Icitral (1 mM)” value (fold larger, −40 mV, n = 6) was “I2-APB (100 µM)/Icitral (1 mM) 25±14 fold larger (n = 6; −40 mV)” and the “Time for >50% inhibition of peak TRP current in continued presence of citral” value (n = 6) was no more than 6 s. The “Increase of inward ITRPV3 above baseline” value (−40 mV) was 38 fold.
